Assay results as given in ChEMBL document CHEMBL3085770, “The functional group on (E)-4,4'-disubstituted stilbenes influences toxicity and antioxidative activity in differentiated PC-12 cells” (Bioorg Med Chem Lett, 2013).
Activity calls are given as the source filed them. The calls are words filed in the database; no cut-off is given here.

Key:
[1] = Cytotoxicity against rat differentiated PC12 cells assessed as cell viability at <= 10 ug/ml after 15 hrs by MTS assay; type: cell-based; details: pc-12, 15 h
[2] = system: PC-12; test: Antioxidant activity in rat differentiated PC12 cells assessed as inhibition of H2O2-induced cell death after 15 hrs by MTS assay; type: functional, cell-based
[3] = system: Radical scavenging activity; test: Antioxidant activity assessed as DPPH free radical scavenging activity over 30 mins by spectrophotometry; type: functional
[4] = Chemical stability of the compound in PBS buffer at 1 ug/ml after 24 hrs by fluorescence assay in presence of 0.3% H2O2; type: physicochemical

| Stability [4] | SMILES | Activity [1] | Activity [2] | Activity [3] |
| --- | --- | --- | --- | --- |
| – | Nc1ccc(/C=C/c2ccc(N)cc2)cc1 | Non-toxic | Active | Active |
| – | CC(O)c1ccc(/C=C/c2ccc(C(C)O)cc2)cc1 (stereo not given) | Non-toxic | inactive | inactive |
| – | C(=C\c1ccccc1)/c1ccccc1 | Non-toxic | – | inactive |
| Unstable | CC(=O)c1ccc(/C=C/c2ccc(C(C)=O)cc2)cc1 | Non-toxic | – | inactive |
| – | Oc1ccc(/C=C/c2ccc(O)cc2)cc1 | – | Active | – |
| Unstable | N#Cc1ccc(/C=C/c2ccc(C#N)cc2)cc1 | Non-toxic | – | inactive |
